Test results from patent publication US12291501B2 (University of Florida Research Foundation, Inc., priority 2021, dated 2025).
Where “and” joins values, the source holds several entries; their conditions need not be identical. Identical values can stand only once. Entries after “also recorded” stand apart in the source; their conditions may differ.

Assays:
[1] = molecular target: T1, α9 nAChR (Homo sapiens, UniProt Q9UGM1); experiment: Two-electrode voltage-clamp, agonist concentration-response, α9 nAChR in Xenopus oocytes; format: cell-based; settings: for α9 Imax: relative to ACh (Imax = 1)
T1 construct: expressed in transfected cells; host or cells: Xenopus laevis oocytes, injected with in vitro transcribed RNA
Description: (§1) Electrophysiology: Xenopus oocytes were microinjected with RNAs to produce functional nAChR which were characterized by two-electrode voltage-clamp measurements. FIGS. 5A-7D present concentration-response curves for the new compounds evaluated with α7, α9, and α9α10 receptors. Table 1 presents the values for Imax and EC50 with these receptors and Table 2 summarizes inhibition data for the compounds with heteromeric nAChR.
(§2) Molecular Biology: Plasmid DNAs encoding the human α7 and heteromeric nAChR were obtained from Jon Lindstrom (University of Pennsylvania, Philadelphia, PA). Mouse muscle subunit clones were obtained from Jim Boulter (Salk Institute, La Jolla CA) and Paul Gardner (Dartmouth, Hanover NH). The human resistance-to-cholinesterase 3 ([…]) clone was obtained from Millet Treinin (Hebrew University, Jerusalem, Israel) and RNA co-injected with α7 to improve the level and speed of receptor expression without affecting their pharmacological properties. Plasmid DNA encoding the human α10 nAChR was obtained from J. Michael McIntosh. Plasmid DNA encoding the human α9 nAChR and the human receptor-associated protein of the synapse (RAPSYN) with codon optimization for expression in Xenopus laevis were obtained from Katrin Richter. RAPSYN RNA was co-injected with the α9 and α10 to improve expression (Richter et al., (2022) Front. Cell Neurosci. 16: 779081). After linearization and purification of the plasmid DNAs, RNAs were prepared using the mMessage mMachine in vitro RNA transcription kit (Ambion, Austin, TX). Frogs were maintained in the Animal Care Service facility of the University of Florida, and all procedures were approved by the University of Florida Institutional Animal Care and Use Committee (approval number 202002669). In brief, the animals were first anesthetized for 15-20 min in 1.5 l frog tank water containing 1 g of MS-222 buffered with sodium bicarbonate. Oocytes were obtained surgically from mature female Xenopus laevis (Nasco, Ft. Atkinson WI, USA) and treated with 1.4 mg/ml type 1 collagenase (Worthington Biochemicals, Freehold NJ, USA) for 2-4 h at rt in Ca2+-free Barth's solution (88 mM NaCl, 1 mM KCl, 2.38 mM NaHCO3, 0.82 mM MgSO4, 15 mM HEPES, and 12 mg/l tetracycline, pH 7.6) to remove the ovarian tissue and the follicular layers. Stage V oocytes were injected with 4-6 ng CHRNA7 RNA and 2-3 ng RIC3 RNA (2:1 ratio) in 50 nl water, or with 12 ng CHRNA9 RNA and 3 ng RAPSN RNA, or along with 12 ng CHRNA10 RNA in 50 nl water. Oocytes were maintained in Barth's solution containing 0.32 mM Ca(NO3)2 and 0.41 mM CaCl2, and recordings were conducted 2-20 days after injection.
(§3) Electrophysiology: Two-electrode voltage-clamp experiments were conducted using OpusXpress 6000A (Molecular Devices, Union City CA, USA). Both the voltage and current electrodes were filled with 3 M KCl. Oocytes were voltage-clamped at −60 mV at rt. The oocytes were perfused with Ringer's solution (115 mM NaCl, 2.5 mM KCl, 1.8 mM CaCl2, 10 mM HEPES, 1 μM atropine, pH 7.2) at 2 ml/min. […] Drug applications were 12 s in duration followed by 181 s washout periods.
(§4) The responses were calculated as both peak-current amplitudes and net charge. Data were collected at 50 Hz, filtered at 20 Hz, and analyzed by Clampfit (Molecular Devices) and Excel (Microsoft, Redmond, WA, United States). Data are expressed as means±SEM from at least five oocytes for each experiment and plotted with Kaleidagraph 4.5.2 (Abelbeck Software, Reading, PA, United States). Each episode of data acquisition was a total of 210 s and included an initial 30 s period used to define the baseline for the drug-evoked responses. After 30 s, drugs were applied, and the following 120 s were defined as the drug response period for analysis. […] The values for the curve fits were generated using the Levenberg-Marquardt algorithm to obtain the best Chi-Square fit to the Hill equation using the Kaleidagraph 4.5.2 plotting program. […]

[2] = molecular target: T2, α9α10 nAChR (Homo sapiens, UniProt Q9GZZ6+Q9UGM1); experiment: Two-electrode voltage-clamp, agonist concentration-response, α9α10 nAChR in Xenopus oocytes; format: cell-based; settings: for α9α10 Imax: relative to ACh (Imax = 1)
T2 construct: expressed in transfected cells; host or cells: Xenopus laevis oocytes, injected with in vitro transcribed RNA
Description: as §1, §2, §3, §4

[3] = molecular target: T3, α1β1εδ nAChR (Mus musculus, UniProt P02716+P04756+P09690+P20782); experiment: Inhibition of control ACh responses by co-application, muscle α1β1εδ nAChR in oocytes; format: cell-based; settings: 3 μM compound co-applied with ACh; fraction of control ACh response
T3 construct: expressed in transfected cells; host or cells: Xenopus laevis oocytes
Procedure: (§5) Initial profiling against heteromeric receptors: The test compounds for their ability to activate or inhibit other nAChR subtypes were evaluated. Agonist activity was evaluated by applying the compounds at 100 or 30 μM to human α4β2 and α3β4 as well as to mouse muscle α1β1εδ nAChR expressed in Xenopus oocytes. […] The inhibitory activity was generally low (Table 3).
as §2, §3
(§6) The responses were calculated as both peak-current amplitudes and net charge. Data were collected at 50 Hz, filtered at 20 Hz, and analyzed by Clampfit (Molecular Devices) and Excel (Microsoft, Redmond, WA, United States). Data are expressed as means±SEM from at least five oocytes for each experiment and plotted with Kaleidagraph 4.5.2 (Abelbeck Software, Reading, PA, United States). Each episode of data acquisition was a total of 210 s and included an initial 30 s period used to define the baseline for the drug-evoked responses. After 30 s, drugs were applied, and the following 120 s were defined as the drug response period for analysis. […] The values for the curve fits were generated using the Levenberg-Marquardt algorithm to obtain the best Chi-Square fit to the Hill equation using the Kaleidagraph 4.5.2 plotting program. The errors in the tables are the calculated standard errors of the fit parameters based on the goodness of fit.

[4] = molecular target: T4, α7 nAChR (Homo sapiens, UniProt P36544); experiment: Two-electrode voltage-clamp, agonist concentration-response, α7 nAChR in Xenopus oocytes; format: cell-based; settings: for EC50 / α7 Imax: net charge, ± standard error of fit; for α7 Imax: relative to ACh (Imax = 1)
T4 construct: expressed in transfected cells; host or cells: Xenopus laevis oocytes, injected with in vitro transcribed RNA
Description: as §1
(§7) Molecular Biology: Plasmid DNAs encoding the human α7 and heteromeric nAChR were obtained from Jon Lindstrom (University of Pennsylvania, Philadelphia, PA). Mouse muscle subunit clones were obtained from Jim Boulter (Salk Institute, La Jolla CA) and Paul Gardner (Dartmouth, Hanover NH). […] Plasmid DNA encoding the human α10 nAChR was obtained from J. Michael McIntosh. Plasmid DNA encoding the human α9 nAChR and the human receptor-associated protein of the synapse (RAPSYN) with codon optimization for expression in Xenopus laevis were obtained from Katrin Richter. […] After linearization and purification of the plasmid DNAs, RNAs were prepared using the mMessage mMachine in vitro RNA transcription kit (Ambion, Austin, TX). […] Oocytes were maintained in Barth's solution containing 0.32 mM Ca(NO3)2 and 0.41 mM CaCl2, and recordings were conducted 2-20 days after injection.
(§8) Electrophysiology: Two-electrode voltage-clamp experiments were conducted using OpusXpress 6000A (Molecular Devices, Union City CA, USA). Both the voltage and current electrodes were filled with 3 M KCl. Oocytes were voltage-clamped at −60 mV at rt.
as §6

[5] = molecular target: T5, α3β4 nAChR (Homo sapiens, UniProt P30926+P32297); experiment: Inhibition of control ACh responses by co-application, α3β4 nAChR in oocytes; format: cell-based; settings: 3 μM compound co-applied with ACh; fraction of control ACh response
T5 construct: expressed in transfected cells; host or cells: Xenopus laevis oocytes
Procedure: as §5, §2, §3, §6

[6] = molecular target: T6, α4β2 nAChR (Homo sapiens, UniProt P17787+P43681); experiment: Inhibition of control ACh responses by co-application, α4β2 nAChR in oocytes; format: cell-based; settings: 3 μM compound co-applied with ACh; fraction of control ACh response
T6 construct: expressed in transfected cells; host or cells: Xenopus laevis oocytes
Procedure: as §5, §2, §3, §6

[7] = molecular target: T4, α7 nAChR; experiment: α7 responses to drugs co-applied with the PAM PNU-120596 (silent agonism); format: cell-based; settings: drug 30 μM + 10 μM PNU-120596; normalized to 30 μM ACh + 10 μM PNU-120596
Description: as §7, §8, §6

[8] = molecular target: T1, α9 nAChR; settings: earlier reports / Papke et al. (2022), Richter et al. (2022); cited from earlier work
[9] = peak currents, ± standard error of fit

T5 sequence (P32297 32-505): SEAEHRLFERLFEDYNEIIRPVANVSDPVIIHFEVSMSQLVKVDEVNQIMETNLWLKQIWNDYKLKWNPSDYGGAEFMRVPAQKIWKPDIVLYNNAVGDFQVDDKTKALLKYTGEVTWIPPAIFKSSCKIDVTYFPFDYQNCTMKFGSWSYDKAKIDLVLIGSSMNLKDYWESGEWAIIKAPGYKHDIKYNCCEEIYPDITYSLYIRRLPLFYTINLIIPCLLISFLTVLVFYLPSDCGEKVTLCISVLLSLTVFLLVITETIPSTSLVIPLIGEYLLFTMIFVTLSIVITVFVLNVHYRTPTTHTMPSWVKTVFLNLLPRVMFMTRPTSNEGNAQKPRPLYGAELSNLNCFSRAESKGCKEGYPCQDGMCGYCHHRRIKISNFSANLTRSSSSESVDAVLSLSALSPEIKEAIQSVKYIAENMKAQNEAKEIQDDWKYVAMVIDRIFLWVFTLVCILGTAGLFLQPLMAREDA
T5 sequence (P30926 22-498): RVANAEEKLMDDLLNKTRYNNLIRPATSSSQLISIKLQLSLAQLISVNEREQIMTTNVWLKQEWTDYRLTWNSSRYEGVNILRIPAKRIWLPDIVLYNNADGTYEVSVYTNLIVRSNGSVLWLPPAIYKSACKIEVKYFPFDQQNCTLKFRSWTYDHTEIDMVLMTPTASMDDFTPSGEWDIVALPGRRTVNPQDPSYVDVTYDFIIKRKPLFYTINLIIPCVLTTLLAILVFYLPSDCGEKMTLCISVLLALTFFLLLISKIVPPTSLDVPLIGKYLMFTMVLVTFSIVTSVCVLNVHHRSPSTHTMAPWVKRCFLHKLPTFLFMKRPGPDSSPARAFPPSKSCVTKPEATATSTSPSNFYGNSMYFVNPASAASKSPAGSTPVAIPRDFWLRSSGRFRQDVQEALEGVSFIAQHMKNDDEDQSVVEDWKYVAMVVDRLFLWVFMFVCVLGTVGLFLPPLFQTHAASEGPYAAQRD
T3 sequence (P04756 21-457): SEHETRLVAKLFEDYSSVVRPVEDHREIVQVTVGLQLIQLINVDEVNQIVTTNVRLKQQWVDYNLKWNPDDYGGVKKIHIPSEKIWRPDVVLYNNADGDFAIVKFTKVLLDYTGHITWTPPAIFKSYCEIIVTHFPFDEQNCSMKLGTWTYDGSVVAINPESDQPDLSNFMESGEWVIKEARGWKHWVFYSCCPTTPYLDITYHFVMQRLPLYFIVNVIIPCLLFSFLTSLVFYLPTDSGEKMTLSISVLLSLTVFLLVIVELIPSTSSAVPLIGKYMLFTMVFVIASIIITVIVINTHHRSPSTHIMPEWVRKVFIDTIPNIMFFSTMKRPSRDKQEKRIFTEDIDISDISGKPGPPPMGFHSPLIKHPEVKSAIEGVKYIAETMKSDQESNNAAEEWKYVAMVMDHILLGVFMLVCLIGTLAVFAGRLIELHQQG
T3 sequence (P09690 24-501): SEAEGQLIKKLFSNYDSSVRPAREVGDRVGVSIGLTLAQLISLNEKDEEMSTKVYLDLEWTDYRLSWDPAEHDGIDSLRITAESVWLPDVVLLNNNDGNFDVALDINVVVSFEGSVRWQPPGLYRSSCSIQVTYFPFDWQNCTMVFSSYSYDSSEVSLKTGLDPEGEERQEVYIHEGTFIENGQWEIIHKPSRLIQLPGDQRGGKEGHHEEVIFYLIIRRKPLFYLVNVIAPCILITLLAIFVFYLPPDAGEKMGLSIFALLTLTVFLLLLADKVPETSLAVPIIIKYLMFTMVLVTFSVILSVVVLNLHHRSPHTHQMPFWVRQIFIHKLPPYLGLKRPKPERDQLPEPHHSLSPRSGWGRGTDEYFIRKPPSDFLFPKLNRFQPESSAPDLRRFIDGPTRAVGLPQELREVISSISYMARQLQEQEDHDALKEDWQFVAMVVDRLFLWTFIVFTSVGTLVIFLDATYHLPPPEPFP
T3 sequence (P20782 21-493): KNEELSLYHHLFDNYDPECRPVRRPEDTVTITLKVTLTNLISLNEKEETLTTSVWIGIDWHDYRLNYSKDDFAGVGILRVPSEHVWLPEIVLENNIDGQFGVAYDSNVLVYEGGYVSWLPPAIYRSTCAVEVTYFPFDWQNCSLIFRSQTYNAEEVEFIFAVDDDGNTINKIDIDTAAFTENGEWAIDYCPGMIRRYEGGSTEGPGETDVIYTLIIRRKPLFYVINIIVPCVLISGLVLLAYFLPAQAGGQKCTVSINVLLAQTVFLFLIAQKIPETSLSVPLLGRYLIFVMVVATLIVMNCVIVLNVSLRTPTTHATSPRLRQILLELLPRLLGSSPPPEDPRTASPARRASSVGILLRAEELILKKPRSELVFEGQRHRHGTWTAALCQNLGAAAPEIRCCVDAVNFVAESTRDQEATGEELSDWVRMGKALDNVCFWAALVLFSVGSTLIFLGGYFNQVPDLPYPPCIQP
T3 sequence (P02716 25-520): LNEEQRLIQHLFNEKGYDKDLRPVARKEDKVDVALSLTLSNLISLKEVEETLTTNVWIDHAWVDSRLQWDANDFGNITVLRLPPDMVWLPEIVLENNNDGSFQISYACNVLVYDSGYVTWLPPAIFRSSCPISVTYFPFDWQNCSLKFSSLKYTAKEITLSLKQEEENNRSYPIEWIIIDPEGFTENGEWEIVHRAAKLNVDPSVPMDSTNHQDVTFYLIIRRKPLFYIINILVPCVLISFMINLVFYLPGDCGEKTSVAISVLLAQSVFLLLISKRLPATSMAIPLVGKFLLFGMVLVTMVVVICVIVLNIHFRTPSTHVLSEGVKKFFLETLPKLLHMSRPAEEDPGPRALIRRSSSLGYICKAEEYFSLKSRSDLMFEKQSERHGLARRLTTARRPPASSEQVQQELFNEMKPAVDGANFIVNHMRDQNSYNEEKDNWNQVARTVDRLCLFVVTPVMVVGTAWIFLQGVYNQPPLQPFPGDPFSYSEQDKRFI
T4 sequence (P36544 23-502): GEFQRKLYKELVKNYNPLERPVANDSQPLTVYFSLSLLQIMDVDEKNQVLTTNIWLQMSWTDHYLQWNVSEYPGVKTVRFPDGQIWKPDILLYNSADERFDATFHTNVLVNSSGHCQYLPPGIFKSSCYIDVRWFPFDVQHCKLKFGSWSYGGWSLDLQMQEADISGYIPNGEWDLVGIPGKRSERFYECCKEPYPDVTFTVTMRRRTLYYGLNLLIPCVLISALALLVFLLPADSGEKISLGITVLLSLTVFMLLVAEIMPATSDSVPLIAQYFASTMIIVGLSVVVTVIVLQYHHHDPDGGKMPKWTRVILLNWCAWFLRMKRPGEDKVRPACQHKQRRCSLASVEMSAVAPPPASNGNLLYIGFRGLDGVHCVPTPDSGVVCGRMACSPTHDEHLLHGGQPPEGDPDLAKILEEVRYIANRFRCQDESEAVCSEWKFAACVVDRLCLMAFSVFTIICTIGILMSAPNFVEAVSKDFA
T6 sequence (P43681 29-627 limits assumed): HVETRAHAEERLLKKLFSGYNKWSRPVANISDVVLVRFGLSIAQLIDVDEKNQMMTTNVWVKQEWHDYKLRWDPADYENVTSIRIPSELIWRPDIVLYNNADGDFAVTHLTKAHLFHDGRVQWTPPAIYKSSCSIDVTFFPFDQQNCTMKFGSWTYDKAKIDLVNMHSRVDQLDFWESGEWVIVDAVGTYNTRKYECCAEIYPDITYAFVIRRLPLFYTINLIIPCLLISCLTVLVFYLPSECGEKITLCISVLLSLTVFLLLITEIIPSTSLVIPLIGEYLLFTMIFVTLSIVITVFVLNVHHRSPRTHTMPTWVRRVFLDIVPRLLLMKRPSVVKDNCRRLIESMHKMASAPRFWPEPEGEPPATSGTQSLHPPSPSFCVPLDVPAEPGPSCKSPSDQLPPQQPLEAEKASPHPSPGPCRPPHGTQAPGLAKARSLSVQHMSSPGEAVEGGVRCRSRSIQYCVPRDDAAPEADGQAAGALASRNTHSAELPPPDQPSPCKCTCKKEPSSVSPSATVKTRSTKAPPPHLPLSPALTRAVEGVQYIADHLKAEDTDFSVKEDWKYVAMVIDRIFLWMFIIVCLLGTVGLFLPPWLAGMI
T6 sequence (P17787 26-502): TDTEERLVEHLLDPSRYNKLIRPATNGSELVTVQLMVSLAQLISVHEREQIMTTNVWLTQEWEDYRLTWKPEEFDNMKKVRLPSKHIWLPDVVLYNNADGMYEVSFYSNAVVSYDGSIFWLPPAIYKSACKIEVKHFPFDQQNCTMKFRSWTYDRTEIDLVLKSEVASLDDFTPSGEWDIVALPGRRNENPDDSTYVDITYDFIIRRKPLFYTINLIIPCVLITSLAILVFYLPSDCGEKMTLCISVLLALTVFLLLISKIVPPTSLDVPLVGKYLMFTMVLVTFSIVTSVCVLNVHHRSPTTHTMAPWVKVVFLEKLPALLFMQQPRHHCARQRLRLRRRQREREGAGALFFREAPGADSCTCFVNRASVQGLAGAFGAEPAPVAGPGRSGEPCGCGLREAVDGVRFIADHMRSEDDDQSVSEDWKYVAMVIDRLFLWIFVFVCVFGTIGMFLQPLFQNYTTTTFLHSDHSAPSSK
T1 sequence (Q9UGM1 26-479 limits assumed): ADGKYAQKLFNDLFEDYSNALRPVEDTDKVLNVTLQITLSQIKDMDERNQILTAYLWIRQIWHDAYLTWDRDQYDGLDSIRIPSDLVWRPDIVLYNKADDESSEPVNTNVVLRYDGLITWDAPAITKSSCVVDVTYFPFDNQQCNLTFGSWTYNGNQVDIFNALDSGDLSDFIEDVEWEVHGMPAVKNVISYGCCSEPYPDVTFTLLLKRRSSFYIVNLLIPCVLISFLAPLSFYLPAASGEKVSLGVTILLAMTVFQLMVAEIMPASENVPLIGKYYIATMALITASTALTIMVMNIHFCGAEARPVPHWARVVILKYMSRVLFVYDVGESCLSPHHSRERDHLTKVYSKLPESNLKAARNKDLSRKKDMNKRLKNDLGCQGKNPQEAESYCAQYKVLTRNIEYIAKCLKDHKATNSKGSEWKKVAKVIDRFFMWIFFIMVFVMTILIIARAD

| SMILES | Agonist character / efficacy at α9 [1] | EC50 [1, 9] | α9 EC50 [1, 9] | α9 Imax [1, 9] | Agonist character / efficacy at α9α10 [2] | EC50 [2, 9] | α9α10 EC50 [2, 9] | α9α10 Imax [2, 9] | Effect of co-application on the control ACh responses, α1β1εδ [3] | Agonist character / efficacy at α7 [4] | EC50 [4] | α7 Imax [4] | Effect of co-application on the control ACh responses, α3β4 [5] | Effect of co-application on the control ACh responses, α4β2 [6] | Response co-applied with PNU-120596, normalized to ACh co-applied with PNU-120596 [7] | Agonist character at α9 [8] | Fold better potency for α9α10 relative to α9 homomers ([2]; ratio of EC50 values) |
| --- | --- | --- | --- | --- | --- | --- | --- | --- | --- | --- | --- | --- | --- | --- | --- | --- | --- |
| CC[N+]1(CC)CCN(c2ccc(-c3ncco3)cc2)CC1.[I-] [Compound 3g, 1,1-diethyl-4-(4-(oxazol-2-yl)phenyl)piperazin-1-ium iodide] | full agonism; also recorded: full agonist | 380 ± 170 nM | submicromolar potency | 1.29±0.13 | strong partial agonist | 700 ± 30 nM | submicromolar potency | 0.83±0.01 | 0.353 ± 0.071 | strongly diminished activity; also recorded: very weak partial agonists | 1700 ± 400 nM | 0.12 ± 0.01 and 0.12 | 0.507 ± 0.032 | 0.823 ± 0.043 | 0.05 | – | – |
| CC[N+]1(CC)CCN(c2ccc(C(F)(F)F)cc2)CC1 [pCF3-diEPP, reference compound] | – | – | – | – | – | – | – | – | – | – | – | – | – | – | – | partial agonist | – |
| CC[N+]1(CC)CCN(c2ccc(C(=O)Nc3ccccn3)cc2)CC1.[I-] [Compound 3c, 1,1-diethyl-4-(4-(pyridin-2-ylcarbamoyl)phenyl)piperazin-1-ium iodide] | – | 18000 ± 36000 nM | – | 1.18 ± 0.39 | efficacious agonist | 1180 ± 260 nM | – | 0.94 ± 0.04 | 0.506 ± 0.082 | partial agonists | 26000 ± 20000 nM | 0.46 ± 0.08 and 0.46 | 0.789 ± 0.057 | 0.697 ± 0.027 | 0.12 | – | 10 fold |
| CC[N+]1(C)CCN(c2ccc(C(=O)Nc3cccc(C)n3)cc2)CC1.[I-] [Compound 3f, 1-ethyl-1-methyl-4-(4-((6-methylpyridin-2-yl)carbamoyl)phenyl)piperazin-1-ium iodide] | full agonist | – | – | 1.19±0.03 | – | – | – | 0.92±0.04 | 0.413 ± 0.070 | – | 4300 to 6400 nM | 0.40 ± 0.02 and 0.4 | 0.849 ± 0.018 | 0.858 ± 0.045 | 0.13 | – | – |
